Test results published in the supplement of paper PMC10307832.

What was measured:
Experiment in all cases: relative viability (nuclei count vs DMSO), 5 days (fraction); higher = more cells survive
[1] = compound: O=C(C[C@H]1NCCC[C@@H]1O)Cn1cnc2cc(Br)c(Cl)cc2c1=O (racemic) [Halofuginone] + Cc1cc(Nc2cc(N3CCN(C)CC3)nc(Sc3ccc(NC(=O)C4CC4)cc3)n2)n[nH]1 [Tozasertib] (partner 0.1 µM)
Method in brief: (§1)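 A single step with final 0.05% Triton X-100, 1% formaldehyde and 1 ug/ml Hoechst fixed the cells and stained nuclei 5 days after treatment. Lung cancer cell lines in 1536-well plates had been treated by pin tool the day after seeding with one drug alone or a fixed anchor-drug dose plus five library-drug doses (not always all listed) in √10 steps, and nuclei were counted on 4× images. Relative viability is the ratio of nuclei in treated wells to nuclei in vehicle wells, taken as the median of duplicate plates.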

[2] = compound: O=C(C[C@H]1NCCC[C@@H]1O)Cn1cnc2cc(Br)c(Cl)cc2c1=O (racemic) [Halofuginone] + N=C(N)NC(=N)NCCc1ccccc1 [Phenformin] (partner 250 µM)
Method in brief: as §1

[3] = compound: O=C(C[C@H]1NCCC[C@@H]1O)Cn1cnc2cc(Br)c(Cl)cc2c1=O (racemic) [Halofuginone] + CS(=O)(=O)N1CCN(Cc2cc3nc(-c4cccc5[nH]ncc45)nc(N4CCOCC4)c3s2)CC1 [Pictilisib] (partner 1 µM)
Method in brief: as §1

Halofuginone + Lapatinib = compound: O=C(C[C@H]1NCCC[C@@H]1O)Cn1cnc2cc(Br)c(Cl)cc2c1=O (racemic) [Halofuginone] + CS(=O)(=O)CCNCc1ccc(-c2ccc3ncnc(Nc4ccc(OCc5cccc(F)c5)c(Cl)c4)c3c2)o1 [Lapatinib] (partner 2 µM)
Method in brief: as §1

Cell Line	relative viability ([1]; first compound 0.001 µM)	relative viability ([1]; first compound 0.003162 µM)	relative viability ([1]; first compound 0.01 µM)	relative viability ([1]; first compound 0.03162 µM)	relative viability ([1]; first compound 0.1 µM)	relative viability ([2]; first compound 0.001 µM)	relative viability ([2]; first compound 0.003162 µM)	relative viability ([2]; first compound 0.01 µM)	relative viability ([2]; first compound 0.03162 µM)	relative viability ([2]; first compound 0.1 µM)	relative viability ([3]; first compound 0.001 µM)	relative viability ([3]; first compound 0.003162 µM)	relative viability ([3]; first compound 0.01 µM)	relative viability ([3]; first compound 0.03162 µM)	relative viability ([3]; first compound 0.1 µM)	relative viability (Halofuginone + Lapatinib; first compound 0.001 µM)	relative viability (Halofuginone + Lapatinib; first compound 0.003162 µM)	relative viability (Halofuginone + Lapatinib; first compound 0.01 µM)	relative viability (Halofuginone + Lapatinib; first compound 0.03162 µM)	relative viability (Halofuginone + Lapatinib; first compound 0.1 µM)
NCI-H2023	0.46	0.294	0.399	0.178	0.134	0.441	0.418	0.383	0.395	0.2	0.268	0.232	0.228	0.141	0.0681	0.8	0.809	0.874	0.494	0.0821
EBC-1											0.441	0.31	0.263	0.195	0.101	0.223	0.247	0.233	0.266	0.245
NCI-H1666	0.656	0.644	0.56	0.596	0.704	0.587	0.612	0.562	0.56	0.475	0.483	0.357	0.443	0.406	0.323	0.685	0.826	0.626	0.67	0.458
NCI-H1975	1.04	0.848	0.737	0.354	0.13	0.403	0.397	0.422	0.356	0.365	0.319	0.298	0.31	0.225	0.106	0.881	0.873	0.766	0.692	0.385
NCI-H2170	0.731	0.678	0.812	0.679	0.728	0.412	0.416	0.411	0.392	0.434	0.311	0.313	0.313	0.32	0.26	0.279	0.296	0.259	0.291	0.249
NCI-H1355	0.667	0.533	0.538	0.527	0.488	0.456	0.503	0.429	0.441	0.407	0.444	0.424	0.458	0.501	0.376	1.03	1.03	0.972	0.984	0.891
NCI-H1648	0.763	0.526	0.643	0.44	0.4															
A549						0.186	0.215	0.148	0.163	0.109	0.569	0.547	0.53	0.347	0.0767	0.993	0.973	0.928	0.603	0.203
SK-MES-1	1.03	0.926	0.754	0.647	0.168	0.657	0.717	0.621	0.556	0.228	0.366	0.358	0.362	0.211	0.145	0.486	0.454	0.474	0.409	0.342
EKVX	0.432	0.377	0.352	0.354	0.349	0.236	0.241	0.232	0.226	0.199	0.442	0.442	0.443	0.469	0.354	0.22	0.213	0.183	0.203	0.202
RERF-LC-KJ	0.549	0.484	0.468	0.456	0.346	0.447	0.436	0.381	0.416	0.423	0.568	0.601	0.543	0.531	0.433	0.951	0.888	0.795	0.833	0.874
NCI-H1755	0.591	0.569	0.567	0.591	0.461	0.636	0.629	0.617	0.665	0.615	0.478	0.468	0.445	0.493	0.287	0.993	0.992	0.992	1.04	0.997
NCI-H661	0.365	0.35	0.322	0.33	0.391	0.296	0.298	0.295	0.274	0.284	0.496	0.355	0.365	0.408	0.444	0.558	0.546	0.424	0.508	0.366
LOU-NH91	0.7	0.791	0.642	0.705	0.576	0.75	0.686	0.65	0.786	0.628	0.574	0.51	0.503	0.52	0.514	0.77	0.746	0.747	0.738	0.676
LXF-289	0.196	0.199	0.245	0.173	0.178	0.533	0.519	0.498	0.508	0.507	0.748	0.859	0.795	0.813	0.495	0.891	0.893	0.847	0.874	0.895
